Ring closure, yield over several steps data for 19 molecules are collected here from paper PMC4441267.

Data set [1] in a line: CuAAC macrocyclisation of azide/terminal alkyne linear peptidomimetics to 1,4-triazole (CuI 2 eq, DIPEA 3 eq, Ar-degassed), then Boc removal (TMSCl/MeOH GP4; HCl/dioxane GP5 for A13w, J13w). The settings on record: THF (reflux), 1.2 mM, 66.0 °C, 18.0 h, 2 steps.
Data set [2] is described as follows: RuAAC macrocyclisation of azide/terminal alkyne linear peptidomimetics to 1,5-triazole ([Cp*RuCl]4 0.1 eq, Ar-degassed), then Boc removal (TMSCl/MeOH GP4 or HCl/dioxane GP5). The settings on record: toluene (reflux), 1.25 mM, 111.0 °C, 18.0 h, 2 steps.

Consider `COC(=O)[C@@H]1CCCn2cc(nn2)CCC(=O)NC[C@H](NC(=O)OC(C)(C)C)C(=O)N1` [Boc-Dap(4-pentynoyl)-Orn(N3)-OMe], for which the ring closure, yield over several steps in data set [1] (from C#CCCC(=O)NC[C@H](NC(=O)OC(C)(C)C)C(=O)N[C@@H](CCCN=[N+]=[N-])C(=O)OC, 15-membered ring) was 53%. For `COC(=O)[C@@H]1CNC(=O)[C@H](Cc2ccccc2)n2cc(nn2)CCC(=O)NCC[C@H](NC(=O)OC(C)(C)C)C(=O)N1` [Boc-Dab(4-pentynoyl)-Dap(N3-Phe)-OMe], the ring closure, yield over several steps in data set [1] (from C#CCCC(=O)NCC[C@H](NC(=O)OC(C)(C)C)C(=O)N[C@@H](CNC(=O)[C@H](Cc1ccccc1)N=[N+]=[N-])C(=O)OC, 17-membered ring) worked out at 81%. Turning to `COC(=O)[C@@H]1CNC(=O)[C@H](Cc2ccccc2)n2cc(nn2)CCC(=O)NCCCC[C@H](NC(=O)OC(C)(C)C)C(=O)N1` [Boc-Lys(4-pentynoyl)-Dap(N3-Phe)-OMe], the ring closure, yield over several steps in data set [1] (from C#CCCC(=O)NCCCC[C@H](NC(=O)OC(C)(C)C)C(=O)N[C@@H](CNC(=O)[C@H](Cc1ccccc1)N=[N+]=[N-])C(=O)OC, 19-membered ring) is 98%. For `COC(=O)[C@@H]1CCCCNC(=O)[C@H](Cc2ccccc2)n2cc(nn2)CCCC(=O)NCC[C@H](NC(=O)OC(C)(C)C)C(=O)N1` [Boc-Dab(5-hexynoyl)-Lys(N3-Phe)-OMe], the ring closure, yield over several steps in data set [1] (from C#CCCCC(=O)NCC[C@H](NC(=O)OC(C)(C)C)C(=O)N[C@@H](CCCCNC(=O)[C@H](Cc1ccccc1)N=[N+]=[N-])C(=O)OC, 21-membered ring) amounted to 88%. The molecule `COC(=O)[C@@H]1CCCn2cc(nn2)CCCC(=O)NCCCC[C@H](NC(=O)OC(C)(C)C)C(=O)N1` [Boc-Lys(5-hexynoyl)-Orn(N3)-OMe] gave a ring closure, yield over several steps in data set [1] (from C#CCCCC(=O)NCCCC[C@H](NC(=O)OC(C)(C)C)C(=O)N[C@@H](CCCN=[N+]=[N-])C(=O)OC, 19-membered ring) of 40%. `COC(=O)[C@@H]1CNC(=O)[C@H](Cc2ccccc2)n2cc(nn2)CCC(=O)NCCC[C@H](NC(=O)OC(C)(C)C)C(=O)N1` [Boc-Orn(4-pentynoyl)-Dap(N3-Phe)-OMe] gave a ring closure, yield over several steps in data set [1] (from C#CCCC(=O)NCCC[C@H](NC(=O)OC(C)(C)C)C(=O)N[C@@H](CNC(=O)[C@H](Cc1ccccc1)N=[N+]=[N-])C(=O)OC, 18-membered ring) of 45%. Regarding `COC(=O)[C@@H]1CCCCn2cc(nn2)CCC(=O)NC[C@H](NC(=O)OC(C)(C)C)C(=O)N1` [Boc-Dap(4-pentynoyl)-Lys(N3)-OMe], in data set [1] (from C#CCCC(=O)NC[C@H](NC(=O)OC(C)(C)C)C(=O)N[C@@H](CCCCN=[N+]=[N-])C(=O)OC, 16-membered ring), the ring closure, yield over several steps stood at 59%. For `COC(=O)[C@@H]1Cc2ccc(cc2)-n2nncc2CCCC(=O)NCC[C@H](N)C(=O)N1` [Boc-Dab(5-hexynoyl)-Phe(4-N3)-OMe], in data set [2] (from C#CCCCC(=O)NCC[C@H](NC(=O)OC(C)(C)C)C(=O)N[C@@H](Cc1ccc(N=[N+]=[N-])cc1)C(=O)OC, 18-membered ring), the ring closure, yield over several steps stood at 97%.

`COC(=O)[C@@H]1CCCn2nncc2CNC(=O)NC[C@H](N)C(=O)N1` [Boc-Dap(CONH-propargyl)-Orn(N3)-OMe] yielded a ring closure, yield over several steps in data set [2] (from C#CCNC(=O)NC[C@H](NC(=O)OC(C)(C)C)C(=O)N[C@@H](CCCN=[N+]=[N-])C(=O)OC, 14-membered ring) of 80%. `COC(=O)[C@@H]1CCCCNC(=O)[C@H](Cc2ccccc2)n2nncc2CCC(=O)NCC[C@H](N)C(=O)N1` [Boc-Dab(4-pentynoyl)-Lys(N3-Phe)-OMe] returned a ring closure, yield over several steps in data set [2] (from C#CCCC(=O)NCC[C@H](NC(=O)OC(C)(C)C)C(=O)N[C@@H](CCCCNC(=O)[C@H](Cc1ccccc1)N=[N+]=[N-])C(=O)OC, 19-membered ring) of 90%. Regarding `COC(=O)[C@@H]1CCCCn2nncc2CCCC(=O)NC[C@H](N)C(=O)N1` [Boc-Dap(5-hexynoyl)-Lys(N3)-OMe], the ring closure, yield over several steps in data set [2] (from C#CCCCC(=O)NC[C@H](NC(=O)OC(C)(C)C)C(=O)N[C@@H](CCCCN=[N+]=[N-])C(=O)OC, 16-membered ring) was determined as 99%. Consider `COC(=O)[C@@H]1CCCn2nncc2CCC(=O)NC[C@H](N)C(=O)N1` [Boc-Dap(4-pentynoyl)-Orn(N3)-OMe], for which the ring closure, yield over several steps in data set [2] (from C#CCCC(=O)NC[C@H](NC(=O)OC(C)(C)C)C(=O)N[C@@H](CCCN=[N+]=[N-])C(=O)OC, 14-membered ring) came to 99%. `COC(=O)[C@@H]1CCCn2nncc2CNC(=O)NCCC[C@H](N)C(=O)N1` [Boc-Orn(CONH-propargyl)-Orn(N3)-OMe] returned a ring closure, yield over several steps in data set [2] (from C#CCNC(=O)NCCC[C@H](NC(=O)OC(C)(C)C)C(=O)N[C@@H](CCCN=[N+]=[N-])C(=O)OC, 16-membered ring) of 99%.

In data set [2] (from C#CCNC(=O)NC[C@H](NC(=O)OC(C)(C)C)C(=O)N[C@@H](CCCCN=[N+]=[N-])C(=O)OC, 15-membered ring), `COC(=O)[C@@H]1CCCCn2nncc2CNC(=O)NC[C@H](N)C(=O)N1` [Boc-Dap(CONH-propargyl)-Lys(N3)-OMe] registered a ring closure, yield over several steps of 73%. Consider `COC(=O)[C@@H]1CCCn2nncc2CCC(=O)Nc2ccc(cc2)C[C@H](N)C(=O)N1` [Boc-Phe(4-NH-4-pentynoyl)-Orn(N3)-OMe], for which the ring closure, yield over several steps in data set [2] (from C#CCCC(=O)Nc1ccc(C[C@H](NC(=O)OC(C)(C)C)C(=O)N[C@@H](CCCN=[N+]=[N-])C(=O)OC)cc1, 18-membered ring) was found to be 44%. The molecule `COC(=O)[C@@H]1CCCCn2nncc2CCC(=O)NCCCC[C@H](N)C(=O)N1` [Boc-Lys(4-pentynoyl)-Lys(N3)-OMe] had a ring closure, yield over several steps in data set [2] (from C#CCCC(=O)NCCCC[C@H](NC(=O)OC(C)(C)C)C(=O)N[C@@H](CCCCN=[N+]=[N-])C(=O)OC, 18-membered ring) of 37%. Consider `COC(=O)[C@@H]1Cc2ccc(cc2)-n2nncc2CCC(=O)NCCC[C@H](N)C(=O)N1` [Boc-Orn(4-pentynoyl)-Phe(4-N3)-OMe], for which, in data set [2] (from C#CCCC(=O)NCCC[C@H](NC(=O)OC(C)(C)C)C(=O)N[C@@H](Cc1ccc(N=[N+]=[N-])cc1)C(=O)OC, 18-membered ring), the ring closure, yield over several steps was determined as 62%.

For the molecule `COC(=O)[C@@H]1CNC(=O)[C@H](Cc2ccccc2)n2nncc2CCCC(=O)NCC[C@H](N)C(=O)N1` [Boc-Dab(5-hexynoyl)-Dap(N3-Phe)-OMe], in data set [2] (from C#CCCCC(=O)NCC[C@H](NC(=O)OC(C)(C)C)C(=O)N[C@@H](CNC(=O)[C@H](Cc1ccccc1)N=[N+]=[N-])C(=O)OC, 17-membered ring), the ring closure, yield over several steps is 99%. In turn, `COC(=O)[C@@H]1CCCn2nncc2CCC(=O)NCCC[C@H](N)C(=O)N1` [Boc-Orn(4-pentynoyl)-Orn(N3)-OMe] came in with a ring closure, yield over several steps in data set [2] (from C#CCCC(=O)NCCC[C@H](NC(=O)OC(C)(C)C)C(=O)N[C@@H](CCCN=[N+]=[N-])C(=O)OC, 16-membered ring) of 99%.
